Measurements published in PubChem BioAssay (NCI).
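Interpolation was linear, between the two tested concentrations surrounding the appropriate level; five concentrations were tested over 48 hours in 96-well plates. GI50: concentration for 50% inhibition of growth. TGI is the concentration that stops growth completely.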

How the values were obtained:
Assay in all cases: growth of human tumour cells (NCI), 48 h; in the data active = GI50 below about 0.43 µM; inactive = the rest
[1] = system: TK-10 renal
[2] = system: HCC-2998 colon
[3] = system: M14 melanoma
[4] = system: NCI-H23 lung
[5] = system: U251 CNS
[6] = system: MCF7 breast
[7] = system: SNB-75 CNS
[8] = system: K-562 leukemia
[9] = system: HOP-92 NSCLC
[10] = system: IGROV1 ovarian
[11] = system: RPMI-8226 leukemia
[12] = system: UACC-257 melanoma
[13] = system: SK-MEL-28 melanoma
[14] = system: KM12 colon
[15] = system: COLO 205 colon
[16] = system: SK-OV-3 ovarian
[17] = system: HT29 colon
[18] = system: MALME-3M melanoma
[19] = system: EKVX NSCLC
[20] = system: SF-539 CNS
[21] = system: HS 578T breast
[22] = system: NCI-H460 lung
[23] = system: OVCAR-3 ovarian
[24] = system: NCI-H226 lung
[25] = system: ACHN renal
[26] = system: HOP-62 NSCLC
[27] = system: T-47D breast
[28] = system: LOX IMVI melanoma
[29] = system: CAKI-1 renal
[30] = system: NCI/ADR-RES ovarian
[31] = system: BT-549 breast
[32] = system: SF-268 CNS
[33] = system: UACC-62 melanoma
[34] = system: MOLT-4 leukemia
[35] = system: CCRF-CEM leukemia
[36] = system: SK-MEL-5 melanoma
[37] = system: HCT-15 colon
[38] = system: OVCAR-5 ovarian
[39] = system: SNB-19 CNS
[40] = system: MDA-MB-231 breast
[41] = system: HL-60(TB) leukemia
[42] = system: A498 renal
[43] = system: SN12C renal
[44] = system: SR leukemia
[45] = system: OVCAR-8 ovarian
[46] = system: MDA-MB-435
[47] = system: 786-0 renal
[48] = system: PC-3 prostate
[49] = system: A549 NSCLC
[50] = system: SK-MEL-2 melanoma
[51] = system: SF-295 CNS
[52] = system: OVCAR-4 ovarian
[53] = system: NCI-H522 lung
[54] = system: SW-620 colon
[55] = system: UO-31 renal
[56] = system: DU-145 prostate
[57] = system: HCT-116 colon
[58] = system: RXF 393 renal

COc1cc(/C=C/C(=O)c2nc3cc(F)ccc3nc2C)cc(OC)c1OC
> 100 µM: TGI [1] | TGI [2] | TGI [3] | TGI [4] | TGI [5] | TGI [6] | TGI [7] | TGI [9] | TGI [10] | TGI [12] | TGI [14] | TGI [15] | TGI [16] | TGI [17] | TGI [18] | TGI [19] | TGI [20] | TGI [21] | TGI [22] | TGI [24] | TGI [25] | TGI [26] | TGI [27] | TGI [29] | TGI [31] | TGI [32] | TGI [33] | TGI [36] | TGI [37] | TGI [38] | TGI [39] | TGI [40] | TGI [42] | TGI [43] | TGI [44] | TGI [45] | TGI [46] | TGI [47] | TGI [48] | TGI [49] | TGI [50] | TGI [51] | TGI [52] | TGI [53] | TGI [54] | TGI [55] | TGI [56]
> 22.3 µM: TGI [34]
> 21 µM: TGI [35]
> 51.6 µM: TGI [57]
> 60.3 µM: TGI [13]
> 91.1 µM: TGI [30]
> 28.1 µM: TGI [23]
> 23.9 µM: TGI [8]
inactive: GI50 [1] > 100 µM | GI50 [2] > 100 µM | GI50 [3] > 43.2 µM | GI50 [4] > 47.9 µM | GI50 [5] 3.54 µM | GI50 [6] 2.3 µM | GI50 [7] 9.3 µM | GI50 [8] 2.01 µM | GI50 [9] 2.81 µM | GI50 [10] 11.4 µM | GI50 [12] 5.51 µM | GI50 [13] 7.91 µM | GI50 [14] 3.49 µM | GI50 [15] 7.56 µM | GI50 [16] > 100 µM | GI50 [17] 3.75 µM | GI50 [18] 1.71 µM | GI50 [19] > 78.7 µM | GI50 [20] > 100 µM | GI50 [21] 5.34 µM | GI50 [22] 4.05 µM | GI50 [23] 2.59 µM | GI50 [24] > 100 µM | GI50 [25] 10.3 µM | GI50 [26] > 27.8 µM | GI50 [27] 4.91 µM | GI50 [28] 2.84 µM | GI50 [29] 7.42 µM | GI50 [30] 14.2 µM | GI50 [31] 8.12 µM | GI50 [32] 7.01 µM | GI50 [33] 5.57 µM | GI50 [34] 1.99 µM | GI50 [35] 1.85 µM | GI50 [36] 5.04 µM | GI50 [37] 2.94 µM | GI50 [38] > 100 µM | GI50 [39] > 51.1 µM | GI50 [40] 8.49 µM | GI50 [41] 1.78 µM | GI50 [42] 5.78 µM | GI50 [43] 6.3 µM | GI50 [44] 1.85 µM | GI50 [45] 5.38 µM | GI50 [46] 3.55 µM | GI50 [47] > 23.2 µM | GI50 [48] 6.05 µM | GI50 [49] 7.37 µM | GI50 [50] 34.5 µM | GI50 [51] > 25.2 µM | GI50 [52] > 40.7 µM | GI50 [53] 6.98 µM | GI50 [54] 5.34 µM | GI50 [55] 7.07 µM | GI50 [56] 3.09 µM | GI50 [57] 3.59 µM
3.07 µM: TGI [11]
> 22.1 µM: TGI [28]
active: GI50 [11] 0.327 µM

CC(=O)O[C@H]([C@H](OC(C)=O)[C@H](C)OC(C)=O)[C@@H](/C=C/[C@H]1CC=CC(=O)O1)OC(C)=O
36.2 µM: TGI [53]
89.8 µM: TGI [11]
> 100 µM: TGI [1] | TGI [3] | TGI [4] | TGI [5] | TGI [6] | TGI [8] | TGI [12] | TGI [13] | TGI [14] | TGI [15] | TGI [16] | TGI [17] | TGI [18] | TGI [19] | TGI [20] | TGI [21] | TGI [22] | TGI [24] | TGI [25] | TGI [26] | TGI [27] | TGI [28] | TGI [29] | TGI [30] | TGI [32] | TGI [33] | TGI [34] | TGI [35] | TGI [36] | TGI [37] | TGI [38] | TGI [39] | TGI [40] | TGI [41] | TGI [42] | TGI [43] | TGI [44] | TGI [45] | TGI [46] | TGI [47] | TGI [48] | TGI [49] | TGI [58] | TGI [50] | TGI [52] | TGI [54] | TGI [55] | TGI [56] | TGI [57]
62.4 µM: TGI [9]
inactive: GI50 [1] > 100 µM | GI50 [2] 24.1 µM | GI50 [3] 67.3 µM | GI50 [4] 66.6 µM | GI50 [5] > 100 µM | GI50 [6] 39 µM | GI50 [7] 22.2 µM | GI50 [8] > 100 µM | GI50 [9] 23.5 µM | GI50 [11] 26.3 µM | GI50 [12] > 100 µM | GI50 [13] 39.2 µM | GI50 [14] > 100 µM | GI50 [15] 37.1 µM | GI50 [16] > 100 µM | GI50 [17] 55.8 µM | GI50 [18] > 100 µM | GI50 [19] > 100 µM | GI50 [20] 37.2 µM | GI50 [21] 65.5 µM | GI50 [22] 59.4 µM | GI50 [24] > 100 µM | GI50 [25] > 100 µM | GI50 [26] 48.5 µM | GI50 [27] 38.3 µM | GI50 [28] 55.1 µM | GI50 [29] 79.7 µM | GI50 [30] > 100 µM | GI50 [31] 21.9 µM | GI50 [32] 41.6 µM | GI50 [33] > 100 µM | GI50 [34] 72.7 µM | GI50 [35] 36.7 µM | GI50 [36] 33.2 µM | GI50 [37] 44.9 µM | GI50 [38] > 100 µM | GI50 [39] 80.5 µM | GI50 [40] > 100 µM | GI50 [41] 59.4 µM | GI50 [42] 41.4 µM | GI50 [43] 83.3 µM | GI50 [44] 73.7 µM | GI50 [45] 51.2 µM | GI50 [46] 41.2 µM | GI50 [47] 97.3 µM | GI50 [48] 17.6 µM | GI50 [49] > 100 µM | GI50 [58] > 100 µM | GI50 [50] 36.4 µM | GI50 [51] 20.6 µM | GI50 [52] 34.7 µM | GI50 [53] 15.6 µM | GI50 [54] 37.6 µM | GI50 [55] > 100 µM | GI50 [56] 38.2 µM | GI50 [57] 33 µM
68.9 µM: TGI [2]
59.8 µM: TGI [51]
72.6 µM: TGI [31]
61.7 µM: TGI [7]
